Laboratory results published in patent US9249178B2, “Tricyclic nucleosides and oligomeric compounds prepared therefrom” (UNIVERSITÄT BERN, priority 2012, dated 2016).

Legend:
complementary DNA = assay: Tm study of 10mer oligomeric compounds duplexed to DNA; type: binding; details: 150 mM NaCl, 10 mM phosphate, 0.1 mM EDTA, pH 7; for ΔTm/mod (° C.) vs DNA: duplex with complementary DNA, compared to unmodified 10mer A01
Procedure: (§1) The relative ability of a chemically-modified oligomeric compound to bind to complementary nucleic acid strands, as compared to natural oligonucleotides, is measured by obtaining the melting temperature of a hybridization complex of said chemically-modified oligomeric compound with its complementary unmodified target nucleic acid. The melting temperature (Tm), a characteristic physical property of double helixes, denotes the temperature in degrees centigrade at which 50% helical versus coiled (unhybridized) forms are present. Tm (also commonly referred to as binding affinity) is measured by using the UV spectrum to determine the formation and breakdown (melting) of hybridization. Base stacking, which occurs during hybridization, is accompanied by a reduction in UV absorption (hypochromicity). Consequently a reduction in UV absorption indicates a higher Tm. Following standard automated DNA synthesis protocols oligomeric compounds were prepared comprising one or more tricyclic nucleosides for Tm studies. After cleavage from the solid support, the oligomeric compounds were purified by ion exchange HPLC and analyzed by LCMS using standard procedures. The Tm of the modified 10mer oligomeric compounds were compared to an unmodified 10mer DNA oligonucleotide when duplexed to either DNA or RNA. Tm's were determined using a Cary 100 Bio spectrophotometer with the Cary Win UV thermal program was used to measure absorbance vs. temperature. For the Tm experiments, the oligomeric compounds were prepared at a concentration of […] in a buffer of 150 mM NaCl, 10 mM phosphate, 0.1 mM EDTA at pH 7. The concentration determined at 85° C. was […] after mixing of equal volumes of selected oligomeric compound and complementary RNA or DNA. The oligomeric compounds were hybridized with a complementary RNA or DNA by heating the duplex to 90° C. for 5 minutes and then cooling to room temperature. Tm measurements were taken using a spectrophotometer while the duplex solution was heated in a cuvette at a rate of 0.5° C./min starting at 15° C. until the temperature was 85° C. Tm values were determined using Vant Hoff calculations (A260 vs temperature curve) using non self-complementary sequences where the minimum absorbance related to the duplex and the maximum absorbance related to the non-duplex single strand are manually integrated into the program.

complementary RNA = assay: Tm study of 10mer oligomeric compounds duplexed to RNA; type: binding; details: 150 mM NaCl, 10 mM phosphate, 0.1 mM EDTA, pH 7; for ΔTm/mod (° C.) vs RNA: duplex with complementary RNA, compared to unmodified 10mer A01
Procedure: as §1

Row | Substance | Tm duplexed with DNA (complementary DNA) | ΔTm/mod (° C.) vs DNA (complementary DNA) | Tm duplexed with RNA (complementary RNA) | ΔTm/mod (° C.) vs RNA (complementary RNA)
1 | AACTGTCACG (unmodified DNA) [A01, unmodified 10mer DNA oligonucleotide, phosphodiester linkages, reference compound] | 47.9 °C | 0 °C | 48.3 °C | 0 °C
2 | AACTGTbCACG [A02] |  | −0.9 °C |  | +0.4 °C
3 | AACTGTdCACG (AACTGT_{d}CACG; as printed in the source, key not given here) [A03, 10mer phosphodiester DNA with one tricyclic nucleoside of subscript d, subscripts drawn in drawing 18] |  | +0.5 °C |  | +2.1 °C
4 | AACTbGTCACG [A04] |  | +0.1 °C |  | +2.4 °C
5 | AACTbGTbCACG [A06] |  | −0.7 °C |  | +0.5 °C
6 | AACTcGTcCACG [A07] |  | −1.0 °C |  | +1.3 °C
7 | AACTdGTCACG (AACT_{d}GTCACG; as printed in the source, key not given here) [A05, 10mer phosphodiester DNA with one tricyclic nucleoside of subscript d] |  | +0.4 °C |  | +2.4 °C
8 | AACTdGTdCACG (AACT_{d}GT_{d}CACG; as printed in the source, key not given here) [A08, 10mer phosphodiester DNA with two tricyclic nucleosides of subscript d] |  | −0.6 °C |  | +1.2 °C
9 | AACTeGTeCACG (AACT_{e}GT_{e}CACG; as printed in the source, key not given here) [A09, 10mer phosphodiester DNA with two tricyclic nucleosides of subscript e (tc^hdT)] |  | −13.0 °C |  | −10.2 °C
10 | AACTfGTfCACG (AACT_{f}GT_{f}CACG; as printed in the source, key not given here) [A10, 10mer phosphodiester DNA with two tricyclic nucleosides of subscript f] |  | −2.0 °C |  | +1.3 °C
11 | AaAaCaTaGaTaCaAaCaGa [A11, reference compound] |  | +1.3 °C |  | +2.1 °C
12 | AaAaCaTaGaTdCaAaCaGa [A12] |  | −2.8 °C |  | −0.6 °C
13 | AaAaCaTbGaTbCaAaCaGa [A14] |  | +1.1 °C |  | +2.0 °C
14 | AaAaCaTcGaTcCaAaCaGa [A15] |  | +1.1 °C |  | +2.0 °C
15 | AaAaCaTdGaTaCaAaCaGa [A13] |  | −3.8 °C |  | −2.6 °C
16 | AaAaCaTdGaTdCaAaCaGa [A16] |  | +1.1 °C |  | +2.3 °C
